Each structure is given as a SMILES string. A value given as a limit tells only on which side of the number the result lay.

The experiment deals with T1, CSF-1R (His-tagged kinase domain, amino acids 568-912) (Homo sapiens, UniProt P07333).
T1 construct: The His-tagged kinase domain of CSF-1R (i.e., amino acids 568-912, GeneBank ID NM_005211); His; made in house; host or cells: baculovirus infected SF+Express insect cells
T1 sequence (P07333 568-912): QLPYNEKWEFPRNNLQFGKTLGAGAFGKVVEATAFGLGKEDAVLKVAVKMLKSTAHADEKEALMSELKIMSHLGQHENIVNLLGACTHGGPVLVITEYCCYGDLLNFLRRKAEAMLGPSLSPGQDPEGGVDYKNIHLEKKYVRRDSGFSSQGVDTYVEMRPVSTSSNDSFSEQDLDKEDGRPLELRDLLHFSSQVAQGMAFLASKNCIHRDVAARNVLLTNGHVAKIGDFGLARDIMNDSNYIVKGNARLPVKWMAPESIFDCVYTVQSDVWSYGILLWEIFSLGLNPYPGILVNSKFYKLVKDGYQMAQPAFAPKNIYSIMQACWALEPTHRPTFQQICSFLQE
Kind of experiment: Assay 2: CSF1R in-vitro AlphaScreen Assay. The format is biochemical. The note with it: phosphorylation of pEY substrate; 0.46 nM CSF-1R, 12 mM ATP in mix. The protocol:
Assay 2: CSF1R in-vitro AlphaScreen Assay
Activity of purified CSF-1R was determined in-vitro using an Amplified Luminescent Proximity Homogeneous Assay (ALPHA) (Perkin Elmer, Mass.), which measures phosphorylation of CSF-1R substrate, biotinylated poly-glutamine-tyrosine peptide (pEY-HTRF CisBio 61GT0BLD), as described below. The His-tagged kinase domain of CSF-1R (i e, amino acids 568-912, GeneBank ID NM_005211) was purified from baculovirus infected SF+Express insect cells (1.4×10^6 cells/ml), French pressed and chromatographed through subsequent QIAgen Ni-NTA, Superflow Mono Q HR 10/10, and Superdex 200 SEC columns.
The phosphorylation of the CSF-1R substrate in the presence and absence of the compound of interest was determined. Briefly, 5 ul of Enzyme/Substrate/adenosine triphosphate (ATP) mix consisting of 0.46 nM of purified CSF-1R, 12 nM pEY substrate, and 12 mM ATP in 1.2× buffer was preincubated with 2 ul of compound for 20 minutes at 25° C. Reactions were initiated with 5 ul of Metal mix consisting of 24 mM MgCl2 in 1.2× buffer and incubated at 25° C. for 90 minutes and reactions were stopped by addition of 5 ul of Detection mix consisting of 20 mM HEPES, 102 mM ethylenediamine tetraacetic acid, 1.65 mg/ml BSA, 136 mM NaCl, 40 ug/ml Streptavidin donor beads (Perkin Elmer, Mass., Catalog #6760002), and 40 ug/ml phosphotyrosine-specific antibody coated acceptor beads (Perkin Elmer, Mass., Catalog #6760620). Plates were incubated at 25° C. for 18 hours in the dark. Phosphorylated substrate was detected by an EnVision plate reader (Perkin Elmer) 680 nm excitation, 520-620 nm emission. Data was graphed and IC50s calculated using Excel Fit (Microsoft).
Background: In Alpha technology, singlet oxygen from a donor bead excites a nearby acceptor bead.
For `COc1cc2nnc(C(N)=O)c(Nc3ccc(C)cc3F)c2cc1C1=CCN(C(C)C)CC1` [Example 29, 4-[(2-Fluoro-4-methylphenyl)amino]-6-(1-isopropyl-1,2,3,6-tetrahydropyridin-4-yl)-7-methoxycinnoline-3-carboxamide], the IC50 (in general, the concentration at which inhibition is half-maximal) was 7 nM. In the case of `COc1cc2nnc(C(N)=O)c(Nc3ccc(C)cc3F)c2cc1N1CCn2cnnc2C1` [Example 31, 6-(5,6-Dihydro[1,2,4]triazolo[4,3-a]pyrazin-7(8H)-yl)-4-[(2-fluoro-4-methylphenyl)amino]-7-methoxycinnoline-3-carboxamide] it was 13 nM. In the case of `COc1cc2nnc(C(N)=O)c(Nc3ccc(C)cc3F)c2cc1N1CCN2C(=NNC2O)C1` (stereo not drawn) [Example 32, 4-[(2-Fluoro-4-methylphenyl)amino]-6-(3-hydroxy-2,5,6,8-tetrahydro[1,2,4]triazolo[4,3-a]pyrazin-7(3H)-yl)-7-methoxycinnoline-3-carboxamide] it was 8 nM; in that of `COc1cc2nnc(C(N)=O)c(Nc3ccc(C)cc3F)c2cc1N1CCN2CCCC2C1` (stereo not drawn) [Example 33, 4-[(2-Fluoro-4-methylphenyl)amino]-6-(hexahydropyrrolo[1,2-a]pyrazin-2(1H)-yl)-7-methoxycinnoline-3-carboxamide], 12 nM; in that of `COc1cc2nnc(C(N)=O)c(Nc3ccc(C)cc3F)c2cc1C1=CCN(CCO)CC1` [Example 34, 4-[(2-Fluoro-4-methylphenyl)amino]-6-[1-(2-hydroxyethyl)-1,2,3,6-tetrahydropyridin-4-yl]-7-methoxycinnoline-3-carboxamide], 5 nM. As for `COc1cc2nnc(C(N)=O)c(Nc3ccc(C)cc3F)c2cc1N1C[C@@H](C)N[C@@H](C)C1` [Example 36, 6-[(3R,5S)-3,5-Dimethylpiperazin-1-yl]-4-[(2-fluoro-4-methylphenyl)amino]-7-methoxycinnoline-3-carboxamide], the figure is < 3 nM. Regarding `COc1cc2nnc(C(N)=O)c(Nc3ccc(C)cc3F)c2cc1N1C[C@@H](C)O[C@@H](C)C1` [Example 37, 6-[(2R,6S)-2,6-Dimethylmorpholin-4-yl]-4-[(2-fluoro-4-methylphenyl)amino]-7-methoxycinnoline-3-carboxamide], the half-inhibitory concentration (IC50) came out at 71 nM.

Turning to `COc1cc2nnc(C(N)=O)c(Nc3ccc(C)cc3F)c2cc1N1CCN(CC(F)(F)F)CC1` [Example 42, 4-[(2-Fluoro-4-methylphenyl)amino]-7-methoxy-6-[4-(2,2,2-trifluoroethyl)piperazin-1-yl]cinnoline-3-carboxamide], the midpoint of inhibition, the IC50, lay at 7 nM.

`CCOc1cc2nnc(C(N)=O)c(Nc3ccc(C)cc3F)c2cc1N1CCN(CCO)CC1` [Example 43, 7-Ethoxy-4-[(2-fluoro-4-methylphenyl)amino]-6-[4-(2-hydroxyethyl)piperazin-1-yl]cinnoline-3-carboxamide] registered a half-inhibitory concentration (IC50) of 3 nM.

Take `COc1cc2nnc(C(N)=O)c(Nc3ccc(F)cc3F)c2cc1N1C[C@@H](C)N[C@@H](C)C1` [Example 44, 4-[(2,4-Difluorophenyl)amino]-6-[(3R,5S)-3,5-dimethylpiperazin-1-yl]-7-methoxycinnoline-3-carboxamide]: half-maximal inhibition (IC50) required 16 nM. In the case of `COc1cc2nnc(C(N)=O)c(Nc3cccc(Cl)c3F)c2cc1N1C[C@@H](C)N[C@@H](C)C1` [Example 45, 4-[(3-Chloro-2-fluorophenyl)amino]-6-[(3R,5S)-3,5-dimethylpiperazin-1-yl]-7-methoxycinnoline-3-carboxamide] it was 6 nM. As for `COc1cc2nnc(C(N)=O)c(Nc3ccc(C)cc3F)c2cc1C1CCN(S(C)(=O)=O)CC1` [Example 50, 4-[(2-Fluoro-4-methylphenyl)amino]-7-methoxy-6-[1-(methylsulfonyl)piperidin-4-yl]cinnoline-3-carboxamide], the figure is 33 nM.
